# Test results as given in patent US9351974B2, “Substituted pteridinones for the treatment of cancer” (OSI Pharmaceuticals, LLC, priority 2011, dated 2016).
# Target: T1, His-tagged full-length RSK2 (RPS6KA3) (Homo sapiens, UniProt P51812)
# T1 construct: His-tagged full-length RSK2 (RPS6KA3, Invitrogen PV3323); His; purchased Invitrogen PV3323
# Experiment: RSK2 Omnia Assay for compound IC50 determination
# Type: biochemical
# Settings: ATP 15 μM, n=2, read-out: Mean RSK2 Biochem IC50
# Method in brief: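 Continuous fluorescence assay (ex 360/em 485 nm) of SOX-peptide (Omnia ST Peptide 6, 5 μM) phosphorylation with ATP 15 μM (Km 16.3 μM). Enzyme was […], in pH 7.5 HEPES/MgCl2 buffer with 1% DMSO. IC50 came from 11-point threefold dilutions ([…]) by four-parameter fit of initial slopes, in duplicate; Ki by Cheng-Prusoff assuming competitive inhibition.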
# T1 sequence (P51812 whole entry): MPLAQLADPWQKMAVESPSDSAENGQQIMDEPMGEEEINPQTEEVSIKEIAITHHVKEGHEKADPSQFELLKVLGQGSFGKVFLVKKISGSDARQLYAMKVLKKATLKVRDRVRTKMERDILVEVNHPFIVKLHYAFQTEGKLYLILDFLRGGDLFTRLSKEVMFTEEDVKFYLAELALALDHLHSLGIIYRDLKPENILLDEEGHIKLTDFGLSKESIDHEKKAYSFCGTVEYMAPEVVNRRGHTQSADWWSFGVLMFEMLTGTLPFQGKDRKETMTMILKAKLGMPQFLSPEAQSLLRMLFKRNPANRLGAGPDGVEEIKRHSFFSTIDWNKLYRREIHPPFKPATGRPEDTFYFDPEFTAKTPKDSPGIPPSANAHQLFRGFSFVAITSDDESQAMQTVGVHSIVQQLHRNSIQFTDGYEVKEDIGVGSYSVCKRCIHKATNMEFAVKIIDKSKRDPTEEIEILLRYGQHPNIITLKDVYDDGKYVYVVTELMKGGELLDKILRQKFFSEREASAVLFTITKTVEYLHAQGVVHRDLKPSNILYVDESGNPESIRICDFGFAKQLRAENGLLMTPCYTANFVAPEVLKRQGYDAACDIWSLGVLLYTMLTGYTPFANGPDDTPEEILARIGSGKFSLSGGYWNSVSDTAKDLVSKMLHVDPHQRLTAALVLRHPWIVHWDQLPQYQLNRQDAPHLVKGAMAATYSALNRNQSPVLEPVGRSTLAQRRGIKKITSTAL
row,SMILES,IC50
1,"CO[C@H]1CC[C@@H](N2c3nc(Nc4cc(F)c5[nH]ncc5c4)ncc3N(c3cccnc3)C(=O)[C@H]2C)CC1 [compound 227, (7R)-2-[(7-fluoro-1H-indazol-5-yl)amino]-8-(cis-4-methoxycyclohexyl)-7-methyl-5-(pyridin-3-yl)-7,8-dihydropteridin-6(5H)-one]",≤ 100 nM
2,"CC[C@@H]1C(=O)N(c2cccc(C(F)(F)F)c2)c2cnc(Nc3cc(F)c4[nH]ncc4c3)nc2N1C1CCCCC1 [compound 291, (7R)-8-cyclohexyl-7-ethyl-2-[(7-fluoro-1H-indazol-5-yl)amino]-5-[3-(trifluoromethyl)phenyl]-7,8-dihydropteridin-6(5H)-one]",≤ 100 nM
3,"CO[C@H]1CC[C@H](N2c3nc(Nc4cc5cn[nH]c5cn4)ncc3N(c3cccc(C#N)c3)C(=O)[C@H]2C)CC1 [compound 230, 3-[(7R)-8-(trans-4-methoxycyclohexyl)-7-methyl-6-oxo-2-(1H-pyrazolo[3,4-c]pyridin-5-ylamino)-7,8-dihydropteridin-5(6H)-yl]benzonitrile]",100 to 1000 nM
4,"C[C@@H]1C(=O)N(c2cccc(CO)c2)c2cnc(Nc3ccc4[nH]ncc4c3)nc2N1C1CCCCC1 [compound 127, (7R)-8-cyclohexyl-5-[3-(hydroxymethyl)phenyl]-2-(1H-indazol-5-ylamino)-7-methyl-7,8-dihydropteridin-6(5H)-one]",≤ 100 nM
5,"CCOc1ccc(N2C(=O)[C@@H](C)N(C3CCC(F)(F)CC3)c3nc(Nc4cc(F)c5[nH]c(=O)oc5c4)ncc32)cc1C#N [compound 280, 5-[(7R)-8-(4,4-difluorocyclohexyl)-2-[(4-fluoro-2-oxo-2,3-dihydro-1,3-benzoxazol-6-yl)amino]-7-methyl-6-oxo-7,8-dihydropteridin-5(6H)-yl]-2-ethoxybenzonitrile]",≤ 100 nM
6,"C[C@@H]1C(=O)N(c2ccc[n+]([O-])c2)c2cnc(Nc3cc(F)c4[nH]ncc4c3)nc2N1C1CCCCC1 [Example 303, (7R)-8-cyclohexyl-2-[(7-fluoro-1H-indazol-5-yl)amino]-7-methyl-5-(1-oxidopyridin-3-yl)-7,8-dihydropteridin-6(5H)-one]",≤ 100 nM
7,"CC[C@@H]1C(=O)N(c2cccc(F)c2)c2cnc(Nc3cc(F)c4[nH]ncc4c3)nc2N1C1CCCCC1 [compound 290, (7R)-8-cyclohexyl-7-ethyl-2-[(7-fluoro-1H-indazol-5-yl)amino]-5-(3-fluorophenyl)-7,8-dihydropteridin-6(5H)-one]",≤ 100 nM
8,"COc1ccc(N2C(=O)[C@@H](C)N(C3CCCCC3)c3nc(Nc4ccc5[nH]ncc5c4)ncc32)cc1F [Example 55, (7R)-8-cyclohexyl-5-(3-fluoro-4-methoxyphenyl)-2-(1H-indazol-5-ylamino)-7-methyl-7,8-dihydropteridin-6(5H)-one]",≤ 100 nM
9,"C[C@@H]1C(=O)N(c2cccnc2)c2cnc(Nc3ccc4[nH]c(=O)oc4c3)nc2N1C1CCCCC1 [compound 151, (7R)-8-cyclohexyl-7-methyl-2-[(2-oxo-2,3-dihydro-1,3-benzoxazol-6-yl)amino]-5-(pyridin-3-yl)-7,8-dihydropteridin-6(5H)-one]",≤ 100 nM
10,"CC[C@@H]1C(=O)N(c2ccc(OC)c(OC)c2)c2cnc(Nc3cc(F)c4[nH]ncc4c3)nc2N1C1CCCCC1 [compound 289, (7R)-8-cyclohexyl-5-(3,4-dimethoxyphenyl)-7-ethyl-2-[(7-fluoro-1H-indazol-5-yl)amino]-7,8-dihydropteridin-6(5H)-one]",≤ 100 nM
11,"CC(C)CCN1c2nc(Nc3cc(F)c4[nH]ncc4c3)ncc2N(c2cccnc2)C(=O)[C@H]1C [Example 87, (7R)-2-[(7-fluoro-1H-indazol-5-yl)amino]-7-methyl-8-(3-methylbutyl)-5-(pyridin-3-yl)-7,8-dihydropteridin-6(5H)-one]",≤ 100 nM
12,"COc1cc2[nH]ncc2cc1Nc1ncc2c(n1)N(C1CCCCC1)[C@H](C)C(=O)N2c1cccc(C#N)c1 [compound 119, 3-[(7R)-8-cyclohexyl-2-[(6-methoxy-1H-indazol-5-yl)amino]-7-methyl-6-oxo-7,8-dihydropteridin-5(6H)-yl]benzonitrile]",> 1000 nM
13,"CC(C)Oc1ccc(N2C(=O)[C@@H](C)N(C3CCOCC3)c3nc(Nc4ccc5[nH]c(=O)oc5c4)ncc32)cc1C#N [compound 199, 5-[(7R)-7-methyl-6-oxo-2-[(2-oxo-2,3-dihydro-1,3-benzoxazol-6-yl)amino]-8-(tetrahydro-2H-pyran-4-yl)-7,8-dihydropteridin-5(6H)-yl]-2-(propan-2-yloxy)benzonitrile]",≤ 100 nM
14,"CC(C)Oc1ccc(N2C(=O)[C@@H](C)N(C3CCC(F)(F)CC3)c3nc(Nc4ccc5[nH]c(=O)oc5c4)ncc32)cc1C#N [compound 285, 5-[(7R)-8-(4,4-difluorocyclohexyl)-7-methyl-6-oxo-2-[(2-oxo-2,3-dihydro-1,3-benzoxazol-6-yl)amino]-7,8-dihydropteridin-5(6H)-yl]-2-(propan-2-yloxy)benzonitrile]",≤ 100 nM
15,"CCOc1ccc(N2C(=O)[C@@H](C)N(CCC(C)C)c3nc(Nc4cc(F)c5[nH]ncc5c4)ncc32)cc1C#N [Example 92, 2-ethoxy-5-[(7R)-2-[(7-fluoro-1H-indazol-5-yl)amino]-7-methyl-8-(3-methylbutyl)-6-oxo-7,8-dihydropteridin-5(6H)-yl]benzonitrile]",≤ 100 nM
16,"C[C@@H]1C(=O)N(c2cccc(C#N)c2)c2cnc(Nc3cc(F)c4[nH]ncc4c3)nc2N1c1cccc(F)c1 [compound 183, 3-[(7R)-2-[(7-fluoro-1H-indazol-5-yl)amino]-8-(3-fluorophenyl)-7-methyl-6-oxo-7,8-dihydropteridin-5(6H)-yl]benzonitrile]",≤ 100 nM
17,"COc1ccc(N2C(=O)[C@@H](C)N(C3CCCCC3)c3nc(Nc4ccc5[nH]ncc5c4)ncc32)cn1 [Example 48, (7R)-8-cyclohexyl-2-(1H-indazol-5-ylamino)-5-(6-methoxypyridin-3-yl)-7-methyl-7,8-dihydropteridin-6(5H)-one]",≤ 100 nM
18,"C[C@@H]1C(=O)N(c2cccnc2)c2cnc(Nc3cc(F)c(O)c(F)c3)nc2N1C1CCCCC1 [compound 160, (7R)-8-cyclohexyl-2-[(3,5-difluoro-4-hydroxyphenyl)amino]-7-methyl-5-(pyridin-3-yl)-7,8-dihydropteridin-(5H)-one.]",≤ 100 nM
19,"COc1ccc(N2C(=O)[C@@H](C)N(C3CCCCC3)c3nc(Nc4ccc5[nH]c(=O)oc5c4)ncc32)cc1OC [compound 150, (7R)-8-cyclohexyl-5-(3,4-dimethoxyphenyl)-7-methyl-2-[(2-oxo-2,3-dihydro-1,3-benzoxazol-6-yl)amino]-7,8-dihydropteridin-6(5H)-one]",≤ 100 nM
20,"COc1ccc(N2C(=O)[C@@H](C)N([C@H]3CC[C@@H](OC)CC3)c3nc(Nc4cc(F)c5[nH]ncc5c4)ncc32)cc1OC [compound 226, (7R)-5-(3,4-dimethoxyphenyl)-2-[(7-fluoro-1H-indazol-5-yl)amino]-8-(cis-4-methoxycyclohexyl)-7-methyl-7,8-dihydropteridin-6(5H)-one]",≤ 100 nM
21,"C[C@@H]1C(=O)N(c2cccc(C#N)c2)c2cnc(Nc3cnc4[nH]ncc4c3)nc2N1C1CCC(F)(F)CC1 [compound 270, 3-[(7R)-8-(4,4-difluorocyclohexyl)-7-methyl-6-oxo-2-(1H-pyrazolo[3,4-b]pyridin-5-ylamino)-7,8-dihydropteridin-5(6H)-yl]benzonitrile]",≤ 100 nM
22,"COc1ccc(N2C(=O)[C@@H](C)N(C3CCCCC3)c3nc(Nc4ccc5[nH]ncc5c4)ncc32)cc1 [Example 26, (7R)-8-cyclohexyl-2-(1H-indazol-5-ylamino)-5-(4-methoxyphenyl)-7-methyl-7,8-dihydropteridin-6(5H)-one]",≤ 100 nM
23,"C[C@@H]1C(=O)N(c2ccc(N(C)C)nc2)c2cnc(Nc3cc(F)c4[nH]ncc4c3)nc2N1C1CCCCC1 [compound 143, (7R)-8-cyclohexyl-5-[6-(dimethylamino)pyridin-3-yl]-2-[(7-fluoro-1H-indazol-5-yl)amino]-7-methyl-7,8-dihydropteridin-6(5H)-one]",≤ 100 nM
24,"C[C@@H]1C(=O)N(c2cccc(C#N)c2)c2cnc(Nc3cc4cn[nH]c4cc3Cl)nc2N1C1CCCCC1 [compound 118, 3-[(7R)-2-[(6-chloro-1H-indazol-5-yl)amino]-8-cyclohexyl-7-methyl-6-oxo-7,8-dihydropteridin-5(6H)-yl]benzonitrile]",≤ 100 nM
25,"CC[C@@H]1C(=O)N(c2cccc(C#N)c2)c2cnc(Nc3cc(F)c4[nH]ncc4c3)nc2N1C1CCCCC1 [compound 287, 3-[(7R)-8-cyclohexyl-7-ethyl-2-[(7-fluoro-1H-indazol-5-yl)amino]-6-oxo-7,8-dihydropteridin-5(6H)-yl]benzonitrile]",≤ 100 nM
26,"CCOc1ccc(N2C(=O)[C@@H](C)N(C3CCOCC3)c3nc(Nc4ccc5[nH]c(=O)oc5c4)ncc32)cc1C#N [compound 198, 2-Ethoxy-5-[(7R)-7-methyl-6-oxo-2-[(2-oxo-2,3-dihydro-1,3-benzoxazol-6-yl)amino]-8-(tetrahydro-2H-pyran-4-yl)-7,8-dihydropteridin-5(6H)-yl]benzonitrile]",≤ 100 nM
27,"CC(C)CCN1c2nc(Nc3ccc(CC(=O)N(C)C)cc3)ncc2N(c2ccccc2)C(=O)C1C (stereo not shown) [Example 6, N,N-dimethyl-2-(4-{[7-methyl-8-(3-methylbutyl)-6-oxo-5-phenyl-5,6,7,8-tetrahydropteridin-2-yl]amino}phenyl)acetamide]",100 to 1000 nM
28,"C[C@@H]1C(=O)N(c2cccc(C#N)c2)c2cnc(Nc3ccc4[nH]ncc4c3)nc2N1CC1CCOCC1 [Example 80, 3-[(7R)-2-(1H-indazol-5-ylamino)-7-methyl-6-oxo-8-(tetrahydro-2H-pyran-4-ylmethyl)-7,8-dihydropteridin-5(6H)-yl]benzonitrile]",≤ 100 nM
